The values below are quoted from earlier work in PMC5861163 (European Journal of Nutrition, 2017).

The series relates to human faecal microbiota. More on the design: method as in PMID 26471074. The conditions noted are these: after 24 h of fermentation in vitro.

Consider `O=C(/C=C/c1ccc(O)cc1)CC(=O)/C=C/c1ccc(O)cc1` [bisdemethoxycurcumin], for which the “degraded by the human faecal microbiota” value is listed as no more than 87%.

Turning to demethoxycurcumin, the “degraded by the human faecal microbiota” value was no more than 61%.
